Measurements published in US20070010488A1, “Compounds for modulating cell proliferation” (priority 2005, published 2007).
Several values for one entry are separate records, joined by “and”; a condition that tells them apart may be missing. Equal entries are not always repeated. Where two headings read alike, the source gives them in different places.

What was measured:
[1] = test system: DAUDI (non-Hodgkin lymphoma); assay: Trypan Blue Dye Exclusion and Cell Counting Assay, DAUDI; assay type: cell-based; conditions: Homo sapiens, 72 hours
Description: (§1) Each test compound was weighed between the ranges of 0.5-2.0 mg, and then dissolved in a specified volume of DMSO to produce a solution of 10 mM. Appropriate dilutions in cell culture medium were made to produce a stock solution of 400 μM. All subsequent dilutions were also done in cell culture medium. This stock solution was then used for further dilutions to produce the initial concentration to be added to the 50 μL and 450 μL of cells in the 96-well and the 48-well microtiter plates, respectively:
(§2) The initial concentration for cells that were cultured in 50 μL 96-well plates was 40 μM. Once 50 μL of this test solution was added to the cells, this then produced a final dilution of 1:2, giving the desired concentration of 20 μM. Further 1:2 dilutions were made until the desired concentration of […] was reached.
(§3) Compound 1 was used as positive control at concentrations of 1 μM and 3 μM. Cells were incubated with the test compounds for 72 hours. C1 and OCI-AML2 and RPMI8226 cell culture media were assayed by addition of 20 μL of Alamar Blue reagent and incubated for 4 hours before reading. Cell counting was utilised for K562 and DAUDI. [drawing 13] […]
(§4) 50 μL of cell culture medium containing the test compound was added to each well twenty four hours after seeding. […] Proliferation of cells was assessed using the fluorimetric Alamar Blue (CellTiter Blue) test and cell counting.

K562 (CML) = assay: Trypan Blue Dye Exclusion and Cell Counting Assay, K562; assay type: cell-based; conditions: Homo sapiens, 72 hours
Description: as §1, §2, §3, §4

RS4-11 (B-ALL) = assay: Alamar Blue cell viability assay, RS4-11; assay type: cell-based; conditions: Homo sapiens, 72 hours
Description: as §1
(§5) The initial concentration for cells that were cultured in 50 μL 96-well plates was 40 μM. […]
as §4
(§6) For the Alamar Blue assay, untreated cells were used as growth controls. Data were assessed in duplicates. […] The Alamar Blue cell viability assay was used to determine the IC50 concentrations for the inhibition of cell proliferation or induction of cell death by the ets articles as well as the reference Compound A. Primary data from all assays were plotted for each test compound, cell system and test concentration, with the y-axis representing the readout for cell proliferation/viability and the x-axis representing the compound concentration (μM). […]

KASUMI-1 (AML) = assay: Alamar Blue cell viability assay, KASUMI-1; assay type: cell-based; conditions: Homo sapiens, 72 hours
Description: as §1, §5, §4, §6

SUP-B15 (B-ALL) = assay: Alamar Blue cell viability assay, SUP-B15; assay type: cell-based; conditions: Homo sapiens, 72 hours
Description: as §1, §5, §4, §6

OCI-AML2 (AML) = assay: Alamar Blue cell viability assay, OCI-AML2; assay type: cell-based; conditions: Homo sapiens, 72 hours
Description: as §1, §2
(§7) Compound 1 was used as positive control at concentrations of 1 μM and 3 μM. […] C1 and OCI-AML2 and RPMI8226 cell culture media were assayed by addition of 20 μL of Alamar Blue reagent and incubated for 4 hours before reading. […]
as §4
(§8) For the Alamar Blue assay, untreated cells were used as growth controls. Data were assessed in duplicates. […]

MV4-11 (AML) = assay: Alamar Blue cell viability assay, MV4-11; assay type: cell-based; conditions: Homo sapiens, 72 hours
Description: as §1, §5, §4, §6

CCRF-CEM (T-ALL) = assay: Alamar Blue cell viability assay, CCRF-CEM; assay type: cell-based; conditions: Homo sapiens, 72 hours
Description: as §1, §5, §4, §6

MOLM-13 (AML) = assay: Alamar Blue cell viability assay, MOLM-13; assay type: cell-based; conditions: Homo sapiens, 72 hours
Description: as §1, §5, §4, §6

SKM-1 (AML) = assay: Alamar Blue cell viability assay, SKM-1; assay type: cell-based; conditions: Homo sapiens, 72 hours
Description: as §1, §5, §4, §6

[2] = Mouse pharmacokinetics, intravenous and oral, plasma LC/MSMS; assay type: in vivo; conditions: Mice CD1; for bioavailability: read-out: Bioavailability factor
Description: Compound A (Stored at ca. +5° C.)
Formulation preparation for oral routes: […]
Animal Phase: • Species: Mice CD1 (supplied from Harlan, France) • Routes tested: Intravenous (Mice Nos.39 to 52 incl.), oral low dose (Mice Nos.53 to 63 incl.) and oral high dose (Mice Nos.65 to 76 incl.) • Animals were not fasted.
Times of blood sampling performed from the abdominal aorta (2 animals per time point): • Intravenous route (IV): 5 min, 15 min, 30 min, 1 h, 2 h, 6 h and 24 h • Oral routes (PO): 15 min, 30 min, 1 h, 3 h, 6 h and 24 h
Plasma was harvested by centrifugation of blood at 3500 g for 10 minutes at ca. +5° C.
Plasma was stored at ca. −20° C. until analysis.
Analytical method: LC/MSMS after extraction
Calibration undertaken in plasma (5 levels in mice, twice injected, ranging from 10 to 1000 ng.mL^−1)
HPLC Conditions: • Colonne: Zorbax C18 50×2.1 mm, 3.5 μm • Filter: A102X 5 μm • Injected volume: 20 μL • Mobile phase flow: 0.1 mL.min^−1 • Autosampler temperature: ca. +5° C. • Oven temperature: ca. +30° C. • Run time: 10 min • Mobile phase: deionized water with 0.1% formic acid/methanol with 0.1% formic acid; 30:70 v/v (isocratic) • Retention time: ca. 2.1 min
Extraction Method for Plasma Sample: • 50 μL of plasma combined with 100 μL of methanol • Vortexed a few seconds • Centrifuged 3 min at 13 000 rpm at ca. +5° C. • Diluted 50 μL of the supernatant with 50 μL of deionized water in a HPLC vial for injection • Vortexed a few seconds • Injected into the HPLC/MSMS system Extraction Method for Plasma Calibration Sample: • 50 μL of plasma sample combined with 100 μL of spiking solution • Vortexed a few seconds • Centrifuged 3 min at 13 000 rpm at ca. +5° C. • Diluted 50 μL of the supernatant with 50μL of deionized water in a HPLC vial for injection • Vortexed a few seconds • Injected into the HPLC/MSMS system Results: Animal and Analytical Phase Results: […]

PEER (B-ALL) = assay: Alamar Blue cell viability assay, PEER; assay type: cell-based; conditions: Homo sapiens, 72 hours
Description: as §1, §5, §4, §6

C1 (T-ALL) = assay: Alamar Blue cell viability assay, C1; assay type: cell-based; conditions: Homo sapiens, 72 hours
Description: as §1, §2, §7, §4, §8

RPMI8226 (myeloma) = assay: Alamar Blue cell viability assay, RPMI8226; assay type: cell-based; conditions: Homo sapiens, RPMI-8226, 72 hours
Description: as §1, §2, §7, §4, §8

MOLT-4 (T-ALL) = assay: Alamar Blue cell viability assay, MOLT-4; assay type: cell-based; conditions: Homo sapiens, 72 hours
Description: as §1, §5, §4, §6

[3] = mouse, plasma, intravenous 3.83 mg/kg
[4] = mouse, plasma, oral high dose 50.2 mg/kg
[5] = mouse, plasma, oral low dose 10.0 mg/kg

IC50 [1]: 550 nM | IC50 (K562 (CML)): 2500 nM | IC50 (RS4-11 (B-ALL)): 450 nM | IC50 (OCI-AML2 (AML)): 1030 nM | IC50 (MV4-11 (AML)): 220 nM | IC50 (CCRF-CEM (T-ALL)): 1180 nM | IC50 (MOLM-13 (AML)): 1900 nM | IC50 (SKM-1 (AML)): 560 nM | concentration at 0.083 h ([2]; CD1, mouse, plasma, iv, 3.83 mg/kg, intravenous 3.83 mg/kg, 0.083 h, individual mice, read-out: Plasma levels): 200 ng/mL | concentration at 0.25 h ([2]; CD1, mouse, plasma, iv, 3.83 mg/kg, intravenous 3.83 mg/kg, 0.25 h, individual mice, read-out: Plasma levels): 64.4 ng/mL | concentration at 0.5 h ([2]; CD1, mouse, plasma, iv, 3.83 mg/kg, intravenous 3.83 mg/kg, 0.5 h, individual mice, read-out: Plasma levels): 57.5 ng/mL | concentration at 2 h ([2]; CD1, mouse, plasma, iv, 3.83 mg/kg, intravenous 3.83 mg/kg, 2 h, individual mice, read-out: Plasma levels): 17.9 ng/mL | concentration at 0.5 h ([2]; CD1, mouse, plasma, po, 10 mg/kg, oral low dose 10.0 mg/kg, 0.5 h, individual mice, read-out: Plasma levels): 71.7 ng/mL | concentration at 1 h ([2]; CD1, mouse, plasma, po, 10 mg/kg, oral low dose 10.0 mg/kg, 1 h, individual mice, read-out: Plasma levels): 83.5 ng/mL | concentration at 3 h ([2]; CD1, mouse, plasma, po, 10 mg/kg, oral low dose 10.0 mg/kg, 3 h, individual mice, read-out: Plasma levels): 41.7 ng/mL | concentration at 24 h ([2]; CD1, mouse, plasma, po, 10 mg/kg, oral low dose 10.0 mg/kg, 24 h, individual mice, LOQ 10 ng · mL^−1, ND: Not Detectable, read-out: Plasma levels): 5.8 ng/mL | concentration at 0.25 h ([2]; CD1, mouse, plasma, po, 50.2 mg/kg, oral high dose 50.2 mg/kg, 0.25 h, individual mice, read-out: Plasma levels): 819 ng/mL | concentration at 0.5 h ([2]; CD1, mouse, plasma, po, 50.2 mg/kg, oral high dose 50.2 mg/kg, 0.5 h, individual mice, read-out: Plasma levels): 434 ng/mL | concentration at 1 h ([2]; CD1, mouse, plasma, po, 50.2 mg/kg, oral high dose 50.2 mg/kg, 1 h, individual mice, read-out: Plasma levels): 175 ng/mL | concentration at 3 h ([2]; CD1, mouse, plasma, po, 50.2 mg/kg, oral high dose 50.2 mg/kg, 3 h, individual mice, read-out: Plasma levels): 137 ng/mL | % AUCextra ([2]; intravenous 3.83 mg/kg): 3.2% | Plasma levels ([2]; intravenous 3.83 mg/kg, 0.083 h, individual mice, 3.83 mg/kg): 333.91 ng/mL | Plasma levels ([2]; intravenous 3.83 mg/kg, 0.25 h, individual mice, 3.83 mg/kg): 85.28 ng/mL | Plasma levels ([2]; intravenous 3.83 mg/kg, 0.5 h, individual mice, 3.83 mg/kg): 69.56 ng/mL | Plasma levels ([2]; intravenous 3.83 mg/kg, 1 h, individual mice, 3.83 mg/kg): 80.73 ng/mL and 39.25 ng/mL | Plasma levels ([2]; intravenous 3.83 mg/kg, 2 h, individual mice, 3.83 mg/kg): 12.9 ng/mL | Plasma levels ([2]; intravenous 3.83 mg/kg, 6 h, individual mice, LOQ 10 ng · mL^−1, 3.83 mg/kg): 14.94 ng/mL and 7.29 ng/mL | Plasma levels ([2]; intravenous 3.83 mg/kg, 24 h, individual mice, LOQ 10 ng · mL^−1, 3.83 mg/kg): 1.68 ng/mL and 0.36 ng/mL | % AUCextra ([2]; oral high dose 50.2 mg/kg): 0.57% | Plasma levels ([2]; oral high dose 50.2 mg/kg, 0.25 h, individual mice, 50.2 mg/kg): 444.58 ng/mL | Plasma levels ([2]; oral high dose 50.2 mg/kg, 0.5 h, individual mice, 50.2 mg/kg): 393.99 ng/mL | Plasma levels ([2]; oral high dose 50.2 mg/kg, 1 h, individual mice, 50.2 mg/kg): 213.68 ng/mL | Plasma levels ([2]; oral high dose 50.2 mg/kg, 3 h, individual mice, 50.2 mg/kg): 160.65 ng/mL | Plasma levels ([2]; oral high dose 50.2 mg/kg, 6 h, individual mice, 50.2 mg/kg): 23.07 ng/mL and 137.34 ng/mL | Plasma levels ([2]; oral high dose 50.2 mg/kg, 24 h, individual mice, LOQ 10 ng · mL^−1, 50.2 mg/kg): 2.36 ng/mL and 1.04 ng/mL | % AUCextra ([2]; oral low dose 10.0 mg/kg): 4.1% | Plasma levels ([2]; oral low dose 10.0 mg/kg, 0.25 h, individual mice, 10 mg/kg): 67.54 ng/mL and 178.37 ng/mL | Plasma levels ([2]; oral low dose 10.0 mg/kg, 0.5 h, individual mice, 10 mg/kg): 83.39 ng/mL | Plasma levels ([2]; oral low dose 10.0 mg/kg, 1 h, individual mice, 10 mg/kg): 70.35 ng/mL | Plasma levels ([2]; oral low dose 10.0 mg/kg, 3 h, individual mice, 10 mg/kg): 40.47 ng/mL | Plasma levels ([2]; oral low dose 10.0 mg/kg, 6 h, individual mice, LOQ 10 ng · mL^−1, 10 mg/kg): 2.67 ng/mL and 6.30 ng/mL | AUC [2, 3]: 254 ng·h/mL | AUC(0-t) [2, 3]: 246 ng·h/mL | Vd [2, 3]: 119 L/kg | clearance ([2]; mouse, plasma, intravenous 3.83 mg/kg, read-out: Total Clearance (converted)): 251 mL/min/kg | half-life ([2]; mouse, plasma, intravenous 3.83 mg/kg, read-out: T½ (converted)): 330 min | AUC [2, 4]: 1400 ng·h/mL | AUC(0-t) [2, 4]: 1390 ng·h/mL | Cmax [2, 4]: 632 ng/mL | Tmax [2, 4]: 15 min | bioavailability ([2]; mouse, plasma, oral high dose 50.2 mg/kg vs intravenous): 43.4% | AUC [2, 5]: 321 ng·h/mL | AUC(0-t) [2, 5]: 308 ng·h/mL | Cmax [2, 5]: 123 ng/mL | Tmax [2, 5]: 15 min | bioavailability ([2]; mouse, plasma, oral low dose 10.0 mg/kg vs intravenous): 48% | IC50 (RPMI8226 (myeloma)): 1500 nM | IC50 (MOLT-4 (T-ALL)): 970 nM
SMILES: CCN1C/C(=C\c2cc(OC)c(OC)c(OC)c2)C(=O)/C(=C/c2cc(OC)c(OC)c(OC)c2)C1 [Compound A]
IC50 (KASUMI-1 (AML)): 560 nM | IC50 (SUP-B15 (B-ALL)): 1030 nM | IC50 (PEER (B-ALL)): 720 nM | IC50 (C1 (T-ALL)): 180 nM
